From the supplement of paper PMC10307832

How the values were obtained:
Assay in all cases: relative viability (nuclei count vs DMSO), 5 days (fraction); higher = more cells survive
NCI-H1666 = test system: NCI-H1666
Summary of the method: (§1)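 Lung cancer cell lines in 1536-well plates were dosed by pin tool the day after seeding, either with one drug alone or with a fixed anchor-drug dose plus five library-drug doses (not always all listed) in √10 steps. After 5 days, cells were fixed and their nuclei stained in one step (final 0.05% Triton X-100, 1% formaldehyde, 1 ug/ml Hoechst), then counted on 4× images. Relative viability is the nuclei count in treated wells divided by that in vehicle wells. Values are medians of duplicate plates.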

UMC-11 = test system: UMC-11
Summary of the method: as §1

LU99A = test system: LU99A
Summary of the method: as §1

COR-L 105 = test system: COR-L 105
Summary of the method: as §1

LC-2-ad = test system: LC-2-ad
Summary of the method: as §1

NCI-H1792 = test system: NCI-H1792
Summary of the method: as §1

NCI-H358 = test system: NCI-H358
Summary of the method: as §1

NCI-H1915 = test system: NCI-H1915
Summary of the method: as §1

LXF-289 = test system: LXF-289
Summary of the method: as §1

HCC-78 = test system: HCC-78
Summary of the method: as §1

EPLC-272H = test system: EPLC-272H
Summary of the method: as §1

NCI-H1944 = test system: NCI-H1944
Summary of the method: as §1

NCI-H2170 = test system: NCI-H2170
Summary of the method: as §1

NCI-H2009 = test system: NCI-H2009
Summary of the method: as §1

NCI-H2085 = test system: NCI-H2085
Summary of the method: as §1

SK-LU-1 = test system: SK-LU-1
Summary of the method: as §1

NCI-H460 = test system: NCI-H460
Summary of the method: as §1

SW 900 = test system: SW 900
Summary of the method: as §1

HCC-366 = test system: HCC-366
Summary of the method: as §1

NCI-H1793 = test system: NCI-H1793
Summary of the method: as §1

A-427 = test system: A-427
Summary of the method: as §1

HOP-62 = test system: HOP-62
Summary of the method: as §1

Question: Which results are given for `O=c1cc(N2CCOCC2)oc2c(-c3cccc4c3sc3ccccc34)cccc12` + Nc1nc2[nH]cc(CCc3ccc(C(=O)N[C@@H](CCC(=O)O)C(=O)O)cc3)c2c(=O)[nH]1 [Pemetrexed] (partner 0.2 µM)?
Answer: relative viability (NCI-H1666; first compound 0.01 µM): 0.944; relative viability (NCI-H1666; first compound 0.03162 µM): 0.912; relative viability (NCI-H1666; first compound 0.1 µM): 0.896; relative viability (NCI-H1666; first compound 0.3162 µM): 0.779; relative viability (NCI-H1666; first compound 1 µM): 0.82; relative viability (UMC-11; first compound 0.01 µM): 0.738; relative viability (UMC-11; first compound 0.03162 µM): 0.66; relative viability (UMC-11; first compound 0.1 µM): 0.868; relative viability (UMC-11; first compound 0.3162 µM): 0.805; relative viability (UMC-11; first compound 1 µM): 0.789; relative viability (LU99A; first compound 0.01 µM): 0.177; relative viability (LU99A; first compound 0.03162 µM): 0.195; relative viability (LU99A; first compound 0.1 µM): 0.139; relative viability (LU99A; first compound 0.3162 µM): 0.19; relative viability (LU99A; first compound 1 µM): 0.176; relative viability (COR-L 105; first compound 0.01 µM): 1.09; relative viability (COR-L 105; first compound 0.03162 µM): 0.949; relative viability (COR-L 105; first compound 0.1 µM): 1.1; relative viability (COR-L 105; first compound 0.3162 µM): 0.997; relative viability (COR-L 105; first compound 1 µM): 0.854; relative viability (LC-2-ad; first compound 0.01 µM): 0.267; relative viability (LC-2-ad; first compound 0.03162 µM): 0.284; relative viability (LC-2-ad; first compound 0.1 µM): 0.282; relative viability (LC-2-ad; first compound 0.3162 µM): 0.279; relative viability (LC-2-ad; first compound 1 µM): 0.304; relative viability (NCI-H1792; first compound 0.01 µM): 0.835; relative viability (NCI-H1792; first compound 0.03162 µM): 0.901; relative viability (NCI-H1792; first compound 0.3162 µM): 0.836; relative viability (NCI-H1792; first compound 1 µM): 0.759; relative viability (NCI-H358; first compound 0.01 µM): 0.166; relative viability (NCI-H358; first compound 0.03162 µM): 0.179; relative viability (NCI-H358; first compound 0.1 µM): 0.181; relative viability (NCI-H358; first compound 0.3162 µM): 0.18; relative viability (NCI-H358; first compound 1 µM): 0.173; relative viability (NCI-H1915; first compound 0.01 µM): 0.495; relative viability (NCI-H1915; first compound 0.03162 µM): 0.534; relative viability (NCI-H1915; first compound 0.1 µM): 0.486; relative viability (NCI-H1915; first compound 0.3162 µM): 0.441; relative viability (NCI-H1915; first compound 1 µM): 0.486; relative viability (LXF-289; first compound 0.01 µM): 0.879; relative viability (LXF-289; first compound 0.03162 µM): 0.925; relative viability (LXF-289; first compound 0.1 µM): 0.913; relative viability (LXF-289; first compound 0.3162 µM): 0.864; relative viability (LXF-289; first compound 1 µM): 0.963; relative viability (HCC-78; first compound 0.01 µM): 0.897; relative viability (HCC-78; first compound 0.03162 µM): 0.886; relative viability (HCC-78; first compound 0.1 µM): 0.933; relative viability (HCC-78; first compound 0.3162 µM): 0.877; relative viability (HCC-78; first compound 1 µM): 0.979; relative viability (EPLC-272H; first compound 0.01 µM): 0.344; relative viability (EPLC-272H; first compound 0.03162 µM): 0.361; relative viability (EPLC-272H; first compound 0.1 µM): 0.334; relative viability (EPLC-272H; first compound 0.3162 µM): 0.368; relative viability (EPLC-272H; first compound 1 µM): 0.442; relative viability (NCI-H1944; first compound 0.01 µM): 0.691; relative viability (NCI-H1944; first compound 0.03162 µM): 0.674; relative viability (NCI-H1944; first compound 0.1 µM): 0.624; relative viability (NCI-H1944; first compound 0.3162 µM): 0.589; relative viability (NCI-H1944; first compound 1 µM): 0.635; relative viability (NCI-H2170; first compound 0.01 µM): 0.253; relative viability (NCI-H2170; first compound 0.03162 µM): 0.251; relative viability (NCI-H2170; first compound 0.1 µM): 0.263; relative viability (NCI-H2170; first compound 0.3162 µM): 0.267; relative viability (NCI-H2170; first compound 1 µM): 0.255; relative viability (NCI-H2009; first compound 0.01 µM): 0.929; relative viability (NCI-H2009; first compound 0.03162 µM): 1.04; relative viability (NCI-H2009; first compound 0.1 µM): 1.01; relative viability (NCI-H2009; first compound 0.3162 µM): 1.01; relative viability (NCI-H2009; first compound 1 µM): 0.998; relative viability (NCI-H2085; first compound 0.01 µM): 0.905; relative viability (NCI-H2085; first compound 0.03162 µM): 0.851; relative viability (NCI-H2085; first compound 0.1 µM): 0.849; relative viability (NCI-H2085; first compound 0.3162 µM): 0.865; relative viability (NCI-H2085; first compound 1 µM): 0.867; relative viability (SK-LU-1; first compound 0.01 µM): 0.963; relative viability (SK-LU-1; first compound 0.03162 µM): 0.975; relative viability (SK-LU-1; first compound 0.1 µM): 1.02; relative viability (SK-LU-1; first compound 0.3162 µM): 1; relative viability (SK-LU-1; first compound 1 µM): 0.953; relative viability (NCI-H460; first compound 0.01 µM): 0.0597; relative viability (NCI-H460; first compound 0.03162 µM): 0.0598; relative viability (NCI-H460; first compound 0.1 µM): 0.0653; relative viability (NCI-H460; first compound 0.3162 µM): 0.0653; relative viability (NCI-H460; first compound 1 µM): 0.0594; relative viability (SW 900; first compound 0.03162 µM): 0.452; relative viability (SW 900; first compound 0.1 µM): 0.425; relative viability (SW 900; first compound 0.3162 µM): 0.51; relative viability (SW 900; first compound 1 µM): 0.507; relative viability (HCC-366; first compound 0.01 µM): 0.159; relative viability (HCC-366; first compound 0.03162 µM): 0.181; relative viability (HCC-366; first compound 0.1 µM): 0.149; relative viability (HCC-366; first compound 0.3162 µM): 0.144; relative viability (HCC-366; first compound 1 µM): 0.186; relative viability (NCI-H1793; first compound 0.01 µM): 0.776; relative viability (NCI-H1793; first compound 0.03162 µM): 0.728; relative viability (NCI-H1793; first compound 0.1 µM): 1.01; relative viability (NCI-H1793; first compound 0.3162 µM): 0.961; relative viability (NCI-H1793; first compound 1 µM): 0.74; relative viability (A-427; first compound 0.01 µM): 0.944; relative viability (A-427; first compound 0.03162 µM): 1.01; relative viability (A-427; first compound 0.1 µM): 0.954; relative viability (A-427; first compound 0.3162 µM): 0.993; relative viability (A-427; first compound 1 µM): 0.945; relative viability (HOP-62; first compound 0.01 µM): 0.303; relative viability (HOP-62; first compound 0.03162 µM): 0.344; relative viability (HOP-62; first compound 0.1 µM): 0.276; relative viability (HOP-62; first compound 0.3162 µM): 0.39; relative viability (HOP-62; first compound 1 µM): 0.384
